The results in this text go back to patent publication US12011422B2, “Synthetic antibacterial compounds and uses thereof” (priority 2021, dated 2024).

Converted amounts (≈) assume the structure as drawn.

One assay deals with Pore-TolC E. coli. As to the kind of experiment: MIC determination (CLSI broth microdilution) against Pore-TolC E. coli. The format is cell-based, Escherichia coli. The settings on record: for Pore-TolC E. coli MIC: 37° C., 18 hours, lowest concentration showing <10% bacterial growth; for MIC: Escherichia coli, 18 h, read-out: Pore-TolC E. coli MIC, Pore-TolC E. coli, 37° C., lowest concentration showing <10% bacterial growth. The method, then:
(§1) The protocol for MIC determination is based on the Clinical & Laboratory Standards Institute (CLSI) guidelines. MICs are determined by setting up 96-well microtiter plates with serially diluted concentrations in DMSO or water ranging from 0-256 μg/mL for each compound of the invention (e.g., 256 μg/mL, 128 μg/mL, 64 μg/mL, 32 μg/mL, 16 μg/mL, 8 μg/mL, 4 μg/mL, 2 μg/mL, 1 μg/mL, etc.). The total volume in each plate is about 200 μL, with 2 μL of each serial dilution added to each well. Clinical isolates of various bacteria are obtained from the American Type Culture Collection (ATCC) and colony-resuspended for MIC testing as per CLSI guidelines. Plates are incubated at 37° C. for 18 hours, and optical density is read on a Tecan M1000 Infinite Pro plate reader at 600 nm. At least 3 replicates are done for each query compound. The MIC for each compound is the lowest compound concentration showing <10% bacterial growth.
(§2) The protocol as described in Example 2 was used to determine the minimal inhibitory concentration (MIC) of each of the following compounds against a strain of S. aureus and Pore-TolC E. coli.

A further assay has as its system a strain of S. aureus. Kind of assay: MIC determination (CLSI broth microdilution) against S. aureus. In kind it is cell-based, Staphylococcus aureus. The settings on record: 37° C., lowest concentration showing <10% bacterial growth; for MIC: Staphylococcus aureus, 18 h, read-out: Staph MIC; for Staph MIC: 18 hours. On the procedure: as §1, §2
Background: In broth dilution the organism is exposed to a series of concentrations in liquid medium.

A further assay concerns E. coli. Kind of assay: Checkerboard broth microdilution (FICI) in combination with Colistin against E. coli. In kind it is cell-based, Escherichia coli. The settings on record: combined with Colistin (0-0.5 μg/mL) against E. coli; compound 0-32 μg/mL; FICI <= 0.5 is synergy. An excerpt: In some embodiments, a compound of the invention and another antibacterial agent are synergistic. In some embodiments, a fractional inhibitory concentration (FIC) index calculation (shown below) is used to show synergy of a compound of the invention and another antibacterial agent.
FICother antibacterial agent=[other antibacterial agent]/MICother antibacterial agent, where [other antibacterial agent] is the lowest inhibitory concentration of the other antibacterial agent in the presence of a compound of the invention.
The FIC index (FICI) is the sum of the FICcompound of the invention and FICother antibacterial agent. Drug-Drug interactions having an FICI of less than or equal to 0.5 are deemed synergistic. In some embodiments, a compound of the invention and another antibacterial agent have a FICI of about 0.5, about 0.4, about 0.3, about 0.2, about 0.1 or about 0. […]
The effect of another antibacterial agent on the activity of the compounds of the invention is evaluated. […] Fractional inhibitory concentration indices (FICIs) are determined by setting up standard checkerboard broth microdilution assays in 96-well microtiter plates with serially diluted 8 (or 10) concentrations of each drug (disclosed compounds and the other antibacterial agent). […] Plates are incubated at 37° C. for 18 hours, and optical density is read on a Tecan M1000 Infinite Pro plate reader at 600 nm. […]

As to `CC(C)=CCC/C(C)=C/Cc1c(O)cc(-c2cncnc2)cc1O` [MLAP-1913], in the assay with Pore-TolC E. coli, the “Pore-TolC E. coli MIC” value amounted to 2 µg/mL. Further, the MIC in the assay on a strain of S. aureus is 8 µg/mL (≈ 24.7 µM). `CC(C)=CCC/C(C)=C/Cc1c(O)cc(C)cc1O` [MLEB-1850]: the MIC with Pore-TolC E. coli was found to be 2 µg/mL (≈ 7.68 µM); with a strain of S. aureus, 8 µg/mL (≈ 30.7 µM). In addition, in the assay with E. coli, the FICI is recorded as under 0.5.

Regarding `CC(C)=CCC/C(C)=C/Cc1c(O)cccc1O` [MLEB-1864], the MIC in the assay on Pore-TolC E. coli was found to be 1 µg/mL (≈ 4.06 µM); in the assay with a strain of S. aureus, 4 µg/mL (≈ 16.2 µM). In the case of `CC(C)=CCC/C(C)=C/Cc1c(O)cc(Br)cc1O` [MLEB-1917], the “Pore-TolC E. coli MIC” value in the assay with Pore-TolC E. coli worked out at 0.5 µg/mL. Besides, the FICI in the assay on E. coli is reported as under 0.375. In the assay with a strain of S. aureus, the MIC came out at 4 µg/mL (≈ 12.3 µM). Turning to `CC(=O)c1ccc(-c2cc(O)c(C/C=C(\C)CCC=C(C)C)c(O)c2)cc1` [MLEB-1996], the MIC is over 32 µg/mL in the assay with Pore-TolC E. coli and 32 µg/mL (≈ 87.8 µM) with a strain of S. aureus.

Turning to `CC(C)=CCC/C(C)=C/Cc1c(O)cc(-c2cccc(C)c2C)cc1O` [MLEB-1997], the MIC was 1 µg/mL (≈ 2.85 µM) in the assay on Pore-TolC E. coli and 2 µg/mL (≈ 5.71 µM) in the assay with a strain of S. aureus.

As to `CC(C)=CCC/C(C)=C/Cc1c(O)cc(-c2ccc(C)cc2)cc1O` [MLEB-1998], the values for the MIC in the assay on Pore-TolC E. coli and in the assay with a strain of S. aureus were 1 µg/mL (≈ 2.97 µM) and 4 µg/mL (≈ 11.9 µM), respectively. The matching figures for `CC(C)=CCC/C(C)=C/Cc1c(O)cc(-c2ccc(C(F)(F)F)cc2)cc1O` [MLEB-1999]: 2 µg/mL (≈ 5.12 µM) and 1 µg/mL (≈ 2.56 µM). The matching figures for `CC(C)=CCC/C(C)=C/Cc1c(O)cc(-c2ccc(Cl)cc2)cc1O` [MLEB-19100]: 2 µg/mL (≈ 5.6 µM) and 2 µg/mL (≈ 5.6 µM). As to `CC(C)=CCC/C(C)=C/Cc1c(O)cc(-c2cccc(C(F)(F)F)c2)cc1O` [MLEB-19101], the “Pore-TolC E. coli MIC” value with Pore-TolC E. coli was determined as 1 µg/mL. Further, in the assay on a strain of S. aureus, the “Staph MIC” value was found to be 2 µg/mL.

As for `CC(C)=CCC/C(C)=C/Cc1c(O)cc(-c2cc(C(F)(F)F)ccc2F)cc1O` [MLEB-19102], the MIC with Pore-TolC E. coli and in the assay on a strain of S. aureus was 2 µg/mL (≈ 4.9 µM) in each case.

For the compound `CC(C)=CCC/C(C)=C/Cc1c(O)cc(-c2cccc(C=O)c2)cc1O` [MLEB-19108], the MIC in the assay on a strain of S. aureus worked out at 8 µg/mL (≈ 22.8 µM).

For `CC(C)=CCC/C(C)=C/Cc1c(O)cc(-c2cnc3ccccc3c2)cc1O` [MLEB-19109], the MIC in the assay on Pore-TolC E. coli and in the assay with a strain of S. aureus was 32 µg/mL (≈ 85.7 µM) each time. Take `CC(C)=CCC/C(C)=C/Cc1c(O)cc(-c2ccc(C=O)cc2)cc1O` [MLEB-19110]: the MIC with a strain of S. aureus was determined as 8 µg/mL (≈ 22.8 µM). On to `CC(C)=CCC/C(C)=C/Cc1c(O)cc(-c2cccc(C(F)(F)F)c2)cc1O` [MLEB-19112], for which the MIC with Pore-TolC E. coli and in the assay with a strain of S. aureus was 1 µg/mL (≈ 2.56 µM) in each case. For `CC(C)=CCC/C(C)=C/Cc1c(O)cc(-c2c(F)cccc2F)cc1O` [MLEB-19114], the MIC turned out to be 0.5 µg/mL (≈ 1.39 µM) with Pore-TolC E. coli and 1 µg/mL (≈ 2.79 µM) with a strain of S. aureus.

Take `CC(C)=CCC/C(C)=C/Cc1c(O)cc(-c2cccc(O)c2)cc1O` [MLEB-19115]: the figures for the MIC with Pore-TolC E. coli and in the assay with a strain of S. aureus were 2 µg/mL (≈ 5.91 µM) and 4 µg/mL (≈ 11.8 µM), respectively.

For `CC(C)=CCC/C(C)=C/Cc1c(O)cc(Br)cc1O` [MLEB-19116], in the assay on Pore-TolC E. coli, the “Pore-TolC E. coli MIC” value worked out at 4 µg/mL. In the assay with a strain of S. aureus, the “Staph MIC” value is 8 µg/mL. On to `CC(C)=CCC/C(C)=C/Cc1c(O)cc(-c2cnc(N)cn2)cc1O` [MLEB-19117], for which the MIC with a strain of S. aureus stood at 4 µg/mL (≈ 11.8 µM). `CC(C)=CCC/C(C)=C/Cc1c(O)cc(-c2cc(C(F)(F)F)cc(C(F)(F)F)c2)cc1O` [MLEB-19118]: the MIC with Pore-TolC E. coli was 8 µg/mL (≈ 17.5 µM); in the assay on a strain of S. aureus, 1 µg/mL (≈ 2.18 µM). Regarding `CC(C)=CCC/C(C)=C/Cc1c(O)cc(-c2c(C)noc2C)cc1O` [MLEB-19120], the MIC in the assay on a strain of S. aureus is 2 µg/mL (≈ 5.86 µM).

Take `CC(C)=CCC/C(C)=C/Cc1c(O)cc(-c2ccccc2Cl)cc1O` [MLEB-19121]: the MIC with a strain of S. aureus stood at 0.5 µg/mL (≈ 1.4 µM). `CC(C)=CCC/C(C)=C/Cc1c(O)cc(-c2ccncc2)cc1O` [MLEB-19128]: the MIC in the assay with Pore-TolC E. coli amounted to 2 µg/mL (≈ 6.18 µM); with a strain of S. aureus, 4 µg/mL (≈ 12.4 µM). With `CC(C)=CCC/C(C)=C/Cc1c(O)cc(-c2cncnc2)cc1O` [MLEB-19129], the “Pore-TolC E. coli MIC” value with Pore-TolC E. coli turned out to be 8 µg/mL. The “Staph MIC” value with a strain of S. aureus was 16 µg/mL. In the case of `CC(C)=CCC/C(C)=C/Cc1c(O)cc(-c2ccc(F)nc2)cc1O` [MLEB-19130], the MIC with Pore-TolC E. coli and in the assay on a strain of S. aureus was 2 µg/mL (≈ 5.86 µM) throughout. In the case of `CC(C)=CCC/C(C)=C/Cc1c(O)cc(-c2ccc(C=O)cc2F)cc1O` [MLEB-19131], the MIC in the assay on Pore-TolC E. coli and with a strain of S. aureus was 2 µg/mL (≈ 5.43 µM) in each case. On to `CC(C)=CCC/C(C)=C/Cc1c(O)cc(-c2cccc(Cl)c2)cc1O` [MLEB-19132], for which the MIC with Pore-TolC E. coli and in the assay with a strain of S. aureus was 1 µg/mL (≈ 2.8 µM) in each case. On to `CC(C)=CCC/C(C)=C/Cc1c(O)cc(-c2cnccc2Cl)cc1O` [MLEB-19133], for which the MIC with Pore-TolC E. coli turned out to be 2 µg/mL (≈ 5.59 µM); in the assay with a strain of S. aureus it was 4 µg/mL (≈ 11.2 µM). Turning to `CC(C)=CCC/C(C)=C/Cc1c(O)cc(-c2cccc([N+](=O)[O-])c2)cc1O` [MLEB-19134], the MIC in the assay on Pore-TolC E. coli and in the assay on a strain of S. aureus was 1 µg/mL (≈ 2.72 µM) throughout. Consider `CC(C)=CCC/C(C)=C/Cc1c(O)cc(-c2ccnc(Cl)c2)cc1O` [MLEB-19135], for which the MIC in the assay on Pore-TolC E. coli is 1 µg/mL (≈ 2.79 µM); in the assay with a strain of S. aureus, 4 µg/mL (≈ 11.2 µM). The matching figures for `CC(C)=CCC/C(C)=C/Cc1c(O)cc(-c2ccc(C#N)cc2)cc1O` [MLEB-19136]: 2 µg/mL (≈ 5.76 µM) and 4 µg/mL (≈ 11.5 µM). The matching figures for `CC(C)=CCC/C(C)=C/Cc1c(O)cc(-c2cccnc2Cl)cc1O` [MLEB-19137]: 1 µg/mL (≈ 2.79 µM) and 1 µg/mL (≈ 2.79 µM). On to `COc1ccc(-c2cc(O)c(C/C=C(\C)CCC=C(C)C)c(O)c2)cn1` [MLEB-19138], for which the MIC in the assay with a strain of S. aureus turned out to be 16 µg/mL (≈ 45.3 µM). Consider `CC(C)=CCC/C(C)=C/Cc1c(O)cc(-c2cnc(Cl)nc2)cc1O` [MLEB-19139], for which the MIC was 4 µg/mL (≈ 11.1 µM) with Pore-TolC E. coli and 16 µg/mL (≈ 44.6 µM) in the assay on a strain of S. aureus. Turning to `CC(C)=CCC/C(C)=C/Cc1c(O)cc(-c2ccc(C=O)o2)cc1O` [MLEB-19161], the MIC with Pore-TolC E. coli and with a strain of S. aureus was 4 µg/mL (≈ 11.8 µM) in each case. Regarding `CC(C)=CCC/C(C)=C/Cc1c(O)cc(-c2ccc(C#N)s2)cc1O` [MLEB-19162], the results for the MIC in the assay with Pore-TolC E. coli and with a strain of S. aureus were 4 µg/mL (≈ 11.3 µM) and 2 µg/mL (≈ 5.66 µM), respectively.

Regarding `COc1ccc(-c2cc(O)c(C/C=C(\C)CCC=C(C)C)c(O)c2)cc1` [MLEB-19163], the results for the MIC in the assay with Pore-TolC E. coli and in the assay on a strain of S. aureus were 2 µg/mL (≈ 5.67 µM) and 4 µg/mL (≈ 11.3 µM), respectively.

Regarding `CC(C)=CCC/C(C)=C/Cc1c(O)cc(-c2ccc(C=O)c(F)c2)cc1O` [MLEB-19164], the MIC in the assay with Pore-TolC E. coli worked out at 4 µg/mL (≈ 10.9 µM); in the assay with a strain of S. aureus, 2 µg/mL (≈ 5.43 µM).

`CC(C)=CCC/C(C)=C/Cc1c(O)cc(-c2ccc([N+](=O)[O-])cc2)cc1O` [MLEB-19165]: the MIC in the assay with Pore-TolC E. coli was 1 µg/mL (≈ 2.72 µM); in the assay on a strain of S. aureus, 2 µg/mL (≈ 5.44 µM).
